pEC50: −log10 of the molar value. Counter-ions that a name gives are not always drawn. One block for each compound: values may come before it.
Tests used:
[1] = Pharmacokinetics (oral bioavailability) in C57BL/6 mice; conditions: mouse, in vivo; for bioavailability: IV 1 mg/kg, PO 30 mg/kg; for Vd: following IV administration, 1 mg/kg, read-out: volume of distribution
Method: Selected compounds were tested for pharmacokinetics in C57BL/6 mice. Compounds 1, 4, 31, 32, 40, 55, 57 and 60 were dosed IV at 1 mg/kg as a formulation of 0.2 mg/mL in 5% DMSO+30% PEG400+65% water and were dosed PO at 30 mg/kg as a formulation of 3 mg/mL in 0.25% MC+5% Tween 80+0.02% SDS. Compound 2 was dosed IV at 1 mg/kg as a formulation of 0.2 mg/mL in 5% ethanol +95% saline and was dosed PO at 30 mg/kg as a formulation of 3 mg/mL in 0.25% MC+5% Tween 80+0.02% SDS.

[2] = system: Chemotherapy-induced Intestinal Injury Model; assay: Diarrhea in mouse chemotherapy-induced (5FU) intestinal injury model; type: in vivo, BALB/c mice; conditions: 5FU 400 mg/kg IP; for Diarrhea Score Day 5 / Diarrhea Score Day 6: score 0-3
Method: Compounds were formulated in vehicle (0.25% methyl cellulose, 5% Tween 80, 0.02% sodium dodecyl sulfate (SDS) in Hanks' Buffered Salt Solution with Ca' and Mg'). On day 1, either saline or a 400 mg/kg dose of 5-fluorouracil (5FU) in saline was administered by intraperitoneal injection to BALB/c mice. Starting on day 2, vehicle or compound was administered twice a day by oral gavage. From days 5 to 6 post-5FU, the animals were scored for diarrhea severity once a day. The diarrhea was scored 0-3 as follows: 0—normal consistency (black and solid), 1—soft (black and a bit lighter/yellow), 2—loosely shaped stool (yellowish and somewhat watery), 3—extreme diarrhea (very watery).

[3] = target: Recombinant AMPK α1/β1/γ1 complex (Homo sapiens (Human), UniProt Q13131+Q9Y478); assay: In vitro pAMPK1 kinase activation assay (ADP-Glo, SAMS peptide); type: biochemical; conditions: AMPK α1/β1/γ1 pre-activated with CAMKK2; 12-point curve; 15 min compound incubation
Recombinant AMPK α1/β1/γ1 complex, sequence (Q13131 whole entry): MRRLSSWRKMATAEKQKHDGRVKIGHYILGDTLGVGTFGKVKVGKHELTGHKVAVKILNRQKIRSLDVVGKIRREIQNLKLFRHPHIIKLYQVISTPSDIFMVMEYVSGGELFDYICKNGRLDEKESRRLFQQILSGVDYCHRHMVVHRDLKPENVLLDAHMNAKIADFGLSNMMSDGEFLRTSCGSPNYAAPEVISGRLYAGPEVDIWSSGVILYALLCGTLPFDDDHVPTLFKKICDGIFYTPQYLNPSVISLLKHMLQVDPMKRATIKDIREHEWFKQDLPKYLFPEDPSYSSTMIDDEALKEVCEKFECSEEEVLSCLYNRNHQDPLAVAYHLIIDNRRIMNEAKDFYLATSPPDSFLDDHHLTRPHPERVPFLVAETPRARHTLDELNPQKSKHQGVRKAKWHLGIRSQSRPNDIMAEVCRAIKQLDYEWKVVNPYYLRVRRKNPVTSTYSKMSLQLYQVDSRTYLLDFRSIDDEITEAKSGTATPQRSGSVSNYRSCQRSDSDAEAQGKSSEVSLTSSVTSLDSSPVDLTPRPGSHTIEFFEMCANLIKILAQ
Recombinant AMPK α1/β1/γ1 complex, sequence (Q9Y478 whole entry): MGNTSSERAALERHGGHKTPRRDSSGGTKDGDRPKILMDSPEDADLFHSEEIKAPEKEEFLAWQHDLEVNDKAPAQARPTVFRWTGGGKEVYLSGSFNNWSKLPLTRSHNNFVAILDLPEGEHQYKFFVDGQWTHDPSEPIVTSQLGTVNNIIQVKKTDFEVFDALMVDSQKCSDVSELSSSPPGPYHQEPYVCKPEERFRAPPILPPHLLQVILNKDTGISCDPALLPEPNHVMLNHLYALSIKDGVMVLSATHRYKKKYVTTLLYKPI
Recombinant AMPK α1/β1/γ1 complex, sequence (P54619 whole entry partner): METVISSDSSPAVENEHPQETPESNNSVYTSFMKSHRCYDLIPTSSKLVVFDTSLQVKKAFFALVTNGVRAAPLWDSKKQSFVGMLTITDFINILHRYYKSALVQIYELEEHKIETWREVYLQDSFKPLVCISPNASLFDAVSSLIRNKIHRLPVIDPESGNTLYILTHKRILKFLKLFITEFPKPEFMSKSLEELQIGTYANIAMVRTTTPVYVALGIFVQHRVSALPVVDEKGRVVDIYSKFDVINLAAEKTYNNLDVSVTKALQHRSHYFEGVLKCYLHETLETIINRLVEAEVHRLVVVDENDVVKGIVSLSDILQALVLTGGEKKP
Method: Compound effect on AMPK enzyme activation was determined in a cell-free format with a 12-point concentration curve. The ADP-Glo detection system was used to determine phosphorylation of a SAMS peptide substrate. Recombinant AMPK α1/β1/γ1 complex was pre-activated by phosphorylation with CAMKK2 followed by incubated with compound for 15 minutes prior to the SAMS phosphorylation reaction. Activity curves and EC50 values were fitted by interpolation to an ATP:ADP standard curve as indicated by the ADP-Glo manufacturer using Prism software.

in vitro = conditions: human
Method: Caco-2 cells purchased from ATCC were seeded onto […] (PET) in 96-well BD Insert plates at 1×10^5 cells/cm^2, and refreshed medium every 4-5 days until to the 21st to 28th day for confluent cell monolayer formation. The transport buffer in the study was HBSS with 10 mM HEPES at pH 7.40±0.05. Test compounds were tested at 2 μM bi-directionally in duplicate. Digoxin was tested at 10 μM bi-directionally in duplicate, while nadolol and metoprolol were tested at 2 μM in A to B direction in duplicate. Final DMSO concentration was adjusted to less than 1%.
The plate was incubated for 2 hours in CO2 incubator at 37±1° C., with 5% CO2 at saturated humidity without shaking. All samples were mixed with acetonitrile containing internal standard and were centrifuged at 4000 rpm for 10 min. Subsequently, 100 μL supernatant solution was diluted with 100 μL distilled water for LC/MS/MS analysis. Concentrations of test and control compounds in starting solution, donor solution, and receiver solution were quantified by LC/MS/MS, using peak area ratio of analyte/internal standard.

[4] = Caco-2, pH 7.4, Mean Recovery A to B

Structure (SMILES): O=C(NCC[N+]12CCN(CC1)CC2)c1ccc(-c2ccc(-c3cc4nc(O[C@@H]5CO[C@H]6[C@@H]5OC[C@H]6O)[nH]c4cc3Cl)cc2)cc1 [Compound 32, 1-(2-(4′-(6-chloro-2-(((3R,3aR,6R,6aR)-6-hydroxyhexahydrofuro[3,2-b]furan-3-yl)oxy)-1H-benzo [d]imidazol-5-yl)-[1,1′-biphenyl]-4-carboxamido)ethyl)-1,4-diazabicyclo[2.2.2]octan-1-ium formate]
bioavailability [1]: < 1%
Vd [1]: < 1 L/kg
Diarrhea Score Day 5, % Change vs. Vehicle ([2]; 20 mpk BID oral): −43%
Diarrhea Score Day 6, % Change vs. Vehicle ([2]; 20 mpk BID oral): −52%
Diarrhea Score Day 5 ([2]; 20 mpk BID oral): 0.63
Diarrhea Score Day 6 ([2]; 20 mpk BID oral): 0.88

Structure (SMILES): C[C@H]1O[C@@H](O[C@H]2[C@@H](O)C[C@H](O[C@H]3[C@@H](O)C[C@H](O[C@H]4CC[C@@]5(C)[C@H](CC[C@@H]6[C@@H]5C[C@@H](O)[C@]5(C)[C@@H](C7=CC(=O)OC7)CC[C@]65O)C4)O[C@@H]3C)O[C@@H]2C)C[C@H](O)[C@@H]1O [Digoxin, reference compound]
Papp A→B at 2 h, 2 μM (in vitro; Caco-2, pH 7.4): < 0.03 ×10⁻⁶ cm/s
Papp B→A at 2 h, 2 μM (in vitro; Caco-2, pH 7.4): 12.7 ×10⁻⁶ cm/s
efflux ratio at 2 h, 2 μM (in vitro; Caco-2, pH 7.4, Efflux Ratio): > 438
recovery at 2 h, 2 μM (in vitro; [4]): < 90.8%
recovery at 2 h, 2 μM (in vitro; Caco-2, pH 7.4, Mean Recovery B to A): 92.2%

Structure (SMILES): CN1CCN(Cc2ccc(-c3ccc(-c4cc5nc(O[C@@H]6CO[C@H]7[C@@H]6OC[C@H]7O)[nH]c5cc4Cl)cc3)cc2)CC1 [Compound 57, (3R,3aR,6R,6aR)-6-((6-chloro-5-(4′-((4-methylpiperazin-1-yl)methyl)-[1,1′-biphenyl]-4-yl)-1H-benzo[d]imidazol-2-yl)oxy)hexahydrofuro[3,2-b]furan-3-ol]
pEC50 [3]: 9.05
bioavailability [1]: < 10%
Vd [1]: < 5 L/kg

Structure (SMILES): OCC1CCN(Cc2ccc(-c3ccc(-c4cc5nc(O[C@@H]6CO[C@H]7[C@@H]6OC[C@H]7O)[nH]c5cc4Cl)cc3)cc2)CC1 [Compound 55, (3R,3aR,6R,6aR)-6-((6-chloro-5-(4′((4-(hydroxymethyl)piperidin-1-yl)methyl)-[1,1′-biphenyl]-4-yl)-1H-benzo[d]imidazol-2-yl)oxy)hexahydrofuro[3,2-b]furan-3-ol]
pEC50 [3]: 8.65
bioavailability [1]: < 15%
Vd [1]: < 5 L/kg

Structure (SMILES): COCCc1ccc(OCC(O)CNC(C)C)cc1 (stereo not shown) [Metoprolol, metoprolol, reference compound]
Papp A→B at 2 h, 2 μM (in vitro; Caco-2, pH 7.4): 16.4 ×10⁻⁶ cm/s
recovery at 2 h, 2 μM (in vitro; [4]): 90%

Structure (SMILES): O=P(O)(O)c1ccc(-c2ccc(-c3nc4nc(O[C@@H]5CO[C@@H](CO)[C@@H]5O)[nH]c4cc3Cl)cc2)cc1 [Compound 68, (4′-(6-chloro-2-(((3R,4S,5S)-4-hydroxy-5-(hydroxymethyl)tetrahydrofuran-3-yl)oxy)-1H-imidazo[4,5-b]pyridin-5-yl)-[1,1′-biphenyl]-4-yl)phosphonic acid]
pEC50 [3]: < 5.00

Structure (SMILES): OC[C@@H](O)[C@@H](O)[C@H](O)[C@@H](O)CNCc1ccc(-c2ccc(-c3cc4nc(O[C@@H]5CO[C@H]6[C@@H]5OC[C@H]6O)[nH]c4cc3Cl)cc2)cc1 [Compound 65, (2R,3R,4R,5S)-6-(((4′-(6-chloro-2-(((3R,3aR,6R,6aR)-6-hydroxyhexahydrofuro[3,2-b]furan-3-yl)oxy)-1H-benzo [d]imidazol-5-yl)-[1,1′-biphenyl]-4-yl)methyl)amino)hexane-1,2,3,4,5-pentaol]
pEC50 [3]: 9.11

More lines, main results first:

pEC50 [3]: 9.03
Structure (SMILES): OCCOCCNCc1ccc(-c2ccc(-c3cc4nc(O[C@@H]5CO[C@H]6[C@@H]5OC[C@H]6O)[nH]c4cc3Cl)cc2)cc1 [Compound 58, (3R,3aR,6R,6aR)-6-((6-chloro-5-(4′-(((2-(2-hydroxyethoxy)ethyl)amino)methyl)-[1,1′-biphenyl]-4-yl)-1H-benzo[d]imidazol-2-yl)oxy)hexahydrofuro[3,2-b]furan-3-ol]
Diarrhea Score Day 5, % Change vs. Vehicle ([2]; 30 mpk BID oral): −81%
Diarrhea Score Day 6, % Change vs. Vehicle ([2]; 30 mpk BID oral): −66%
Diarrhea Score Day 5 ([2]; 30 mpk BID oral): 0.25
Diarrhea Score Day 6 ([2]; 30 mpk BID oral): 0.38

pEC50 [3]: 9.07
bioavailability [1]: < 15%
Vd [1]: < 5 L/kg
Structure (SMILES): OCC1(CO)CCN(Cc2ccc(-c3ccc(-c4cc5nc(O[C@@H]6CO[C@H]7[C@@H]6OC[C@H]7O)[nH]c5cc4Cl)cc3)cc2)CC1 [Compound 60, (1-((4′-(6-chloro-2-(((3R,3aR,6R,6aR)-6-hydroxyhexahydrofuro[3,2-b]furan-3-yl)oxy)-1H-benzo[d]imidazol-5-yl)-[1,1′-biphenyl]-4-yl)methyl)piperidine-4,4-diyl)dimethanol]
Diarrhea Score Day 5, % Change vs. Vehicle ([2]; 30 mpk BID oral): −71%
Diarrhea Score Day 6, % Change vs. Vehicle ([2]; 30 mpk BID oral): −66%
Diarrhea Score Day 5 ([2]; 30 mpk BID oral): 0.38
Diarrhea Score Day 6 ([2]; 30 mpk BID oral): 0.38

bioavailability [1]: < 10%
Vd [1]: < 5 L/kg
Structure (SMILES): OCC(CO)NCc1ccc(-c2ccc(-c3cc4nc(O[C@@H]5CO[C@H]6[C@@H]5OC[C@H]6O)[nH]c4cc3Cl)cc2)cc1 [Compound 40, 2-(((4′-(6-chloro-2-(((3R,3aR,6R,6aR)-6-hydroxyhexahydrofuro[3,2-b]furan-3-yl)oxy)-1H-benzo[d]imidazol-5-yl)-[1,1′-biphenyl]-4-yl)methyl)amino)propane-1,3-diol]
Diarrhea Score Day 5, % Change vs. Vehicle ([2]; 30 mpk BID oral): −66%
Diarrhea Score Day 6, % Change vs. Vehicle ([2]; 30 mpk BID oral): −59%
Diarrhea Score Day 5 ([2]; 30 mpk BID oral): 0.38
Diarrhea Score Day 6 ([2]; 30 mpk BID oral): 0.75

pEC50 [3]: 9.03
Structure (SMILES): OCCN1CCN(Cc2ccc(-c3ccc(-c4cc5nc(O[C@@H]6CO[C@H]7[C@@H]6OC[C@H]7O)[nH]c5cc4Cl)cc3)cc2)CC1 [Compound 56]
Diarrhea Score Day 5, % Change vs. Vehicle ([2]; 30 mpk BID oral): −71%
Diarrhea Score Day 6, % Change vs. Vehicle ([2]; 30 mpk BID oral): −77%
Diarrhea Score Day 5 ([2]; 30 mpk BID oral): 0.38
Diarrhea Score Day 6 ([2]; 30 mpk BID oral): 0.25

pEC50 [3]: 8.96
Structure (SMILES): OCC1CN(Cc2ccc(-c3ccc(-c4cc5nc(O[C@@H]6CO[C@H]7[C@@H]6OC[C@H]7O)[nH]c5cc4Cl)cc3)cc2)C1 [Compound 63, (3R,3aR,6R,6aR)-6-((6-chloro-5-(4′((3-(hydroxymethyl)azetidin-1-yl)methyl)-[1,1′-biphenyl]-4-yl)-1H-benzo[d]imidazol-2-yl)oxy)hexahydrofuro[3,2-b]furan-3-ol]

pEC50 [3]: 9.08
Structure (SMILES): OCC(CO)(CO)NCc1ccc(-c2ccc(-c3cc4nc(O[C@@H]5CO[C@H]6[C@@H]5OC[C@H]6O)[nH]c4cc3Cl)cc2)cc1 [Compound 36, 2-(((4′-(6-chloro-2-(((3R,3aR,6R,6aR)-6-hydroxyhexahydrofuro[3,2-b]furan-3-yl)oxy)-1H-benzo[d]imidazol-5-yl)-[1,1′-biphenyl]-4-yl)methyl)amino)-2-(hydroxymethyl)propane-1,3-diol]

pEC50 [3]: 8.94
Structure (SMILES): CN(CCOCCO)C(=O)c1ccc(-c2ccc(-c3cc4nc(O[C@@H]5CO[C@H]6[C@@H]5OC[C@H]6O)[nH]c4cc3Cl)cc2)cc1 [Compound 48, 4′-(6-chloro-2-(((3R,3aR,6R,6aR)-6-hydroxyhexahydrofuro[3,2-b]furan-3-yl)oxy)-1H-benzo [d]imidazol-5-yl)-N-(2-(2-hydroxyethoxy)ethyl)-N-methyl-[1,1′-biphenyl]-4-carboxamide]

pEC50 [3]: 8.75
Structure (SMILES): CN(CCS(=O)(=O)O)C(=O)c1ccc(-c2ccc(-c3nc4nc(O[C@@H]5CO[C@H]6[C@@H]5OC[C@H]6O)[nH]c4cc3Cl)cc2)cc1 [Compound 8, 2-(4′-(6-chloro-2-(((3R,3aR,6R,6aR)-6-hydroxyhexahydrofuro[3,2-b]furan-3-yl)oxy)-1H-imidazo[4,5-b]pyridin-5-yl)-N-methyl-[1,1′-biphenyl]4-carboxamido)ethane-1-sulfonic acid]

pEC50 [3]: 8.62
Structure (SMILES): O=C(CCCNCc1ccc(-c2ccc(-c3cc4nc(O[C@@H]5CO[C@H]6[C@@H]5OC[C@H]6O)[nH]c4cc3Cl)cc2)cc1)NC(CO)CO [Compound 38, 4-(((4′-(6-chloro-2-(((3R,3aR,6R,6aR)-6-hydroxyhexahydrofuro[3,2-b]furan-3-yl)oxy)-1H-benzo[d]imidazol-5-yl)-[1,1′-biphenyl]-4-yl)methyl)amino)-N-(1,3-dihydroxypropan-2-yl)butanamide]

Source: patent publication US11407768B2, “AMPK activators” (Kallyope, Inc., priority 2020, dated 2022)
